{"source": "patent US10238670B2", "about": "“9-aminomethyl minocycline compounds and methods of use thereof in urinary tract infection (UTI) treatment” (Paratek Pharmaceuticals, Inc., priority 2016, dated 2019)", "key": {"human plasma protein": {"test_system": "human plasma protein", "conditions": "human, plasma; cited from earlier work"}, "[1]": {"test_system": "E. coli (ATCC 25922) biofilm", "test": "MBEC assay, activity against established 24 hour biofilm", "type": "cell-based, Escherichia coli", "conditions": "24 hours challenge", "description": "(§1) The MBEC™ assay (formerly the Calgary biofilm device; Innovotech Inc., Canada) is a well-established high throughput assay for assessment of anti-biofilm activity of test agents in a 96-well format. Within this assay, the biofilm is formed on the plastic pegs of the plate lid. After inoculated media is introduced to the wells of the 96-well plate, the plate is placed in a shaking incubator to generate the necessary shear force for biofilm growth on the pegs. Following a suitable incubation time, the individual biofilms can be treated with varying concentrations of test agents (challenge plate). After the desired treatment time, the remaining biofilm-associated bacteria are retrieved from the pegs through sonication (recovery plate). Serial dilution and/or plating of the recovered bacterial suspension allow for the quantification of test agents' efficacy against pre-formed biofilms. Additionally, readout of the challenge plate from the biofilm treatment can be used to determine MIC values of test agents. The absence of growth in the recovery plate indicates complete biofilm eradication and the lowest concentration of a test agent that achieves this is designated as the minimum biofilm eradication concentration (MBEC). The MBEC™ assay is also amenable to assess potential synergistic effects of combination treatments, as well as efficacy of test agents in inhibiting or inducing biofilm formation. The MBEC™ plates were inoculated with 10^7 CFU/mL of stationary phase E. coli (ATCC 25922) and incubated for 24 hours to allow formation of a robust biofilm. The individual biofilms formed on the pegs were challenged with varying concentrations of antibiotics for 24 hours, followed by recovery of the surviving bacteria. Bacterial enumeration was performed using a Most Probable Number (MPN) assay (Sutton, Journal of Validation Technology 16 (3): 35-38, 2010, incorporated herein by reference) in a 96-well format."}, "[2]": {"test_system": "E. coli (ATCC 25922) biofilm", "test": "MBEC assay, inhibition of biofilm formation", "type": "cell-based, Escherichia coli", "description": "as §1, with “formation.” for “formation. The MBEC™ plates were inoculated with 10^7 CFU/mL of stationary phase E. coli (ATCC 25922) and incubated for 24 hours to allow formation of a robust biofilm. The individual biofilms formed on the pegs were challenged with varying concentrations of antibiotics for 24 hours, followed by recovery of the surviving bacteria. Bacterial enumeration was performed using a Most Probable Number (MPN) assay (Sutton, Journal of Validation Technology 16 (3): 35-38, 2010, incorporated herein by reference) in a 96-well format.”\nThe MBEC™ plates were inoculated with either 10^5 CFU/mL (low inoculum) or 10^7 CFU/mL (high inoculum) of stationary phase E. coli (ATCC 25922) with simultaneous addition of antibiotics to evaluate the progression of biofilm formation under antibiotic challenge. After 24 hour incubation, the bacteria were recovered and enumerated (as above). FIG. 6. […] FIG. 7."}}}
{"smiles": "CN(C)c1ccc(O)c2c1C[C@H]1C[C@H]3[C@H](N(C)C)C(O)=C(C(N)=O)C(=O)[C@@]3(O)C(O)=C1C2=O", "note": "[Minocycline]", "values": [{"measurement": "human plasma protein binding, Mean", "setting": "human plasma protein", "value": 76, "unit": "%"}]}
{"smiles": "O=C(O)c1cn(C2CC2)c2cc(N3CCNCC3)c(F)cc2c1=O", "note": "[ciprofloxacin]", "values": [{"measurement": "reduction of total biofilm-associated bacteria", "setting": "[1]; at around MIC", "value": "did not show activity"}, {"measurement": "reduction in bioburden", "setting": "[1]; at higher concentrations", "value": "up to 5 log units"}, {"measurement": "reduction in total bioburden of biofilm compared to control", "setting": "[2]; (approx. 15% of MIC), low inoculum", "value": "no reduction in the total bioburden"}, {"measurement": "induction of biofilm formation", "setting": "[2]; sub-MIC doses", "value": "did not induce biofilm formation"}]}
